Consider 34 molecules from patent publication US10428044B2, “3-amino-1,5,6,7-tetrahydro-4H-indol-4-ones” (Bayer Pharma Aktiengesellschaft, priority 2014, dated 2019).

pIC50: −log10 of the molar value.

The target in this assay is (recombinant) catalytic domain of human Bub1 (amino acids 704-1085) (Homo sapiens (Human), UniProt O43683). In words: Bub1 kinase assay (TR-FRET). The format is biochemical. The conditions noted are these: ATP 10 μM final, peptide substrate 1 μM final, 60 min at 22° C., read-out: Biological Assay: Bub1 kinase assay median IC50. An outline of the steps: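 Readout was TR-FRET between a Eu-labeled antibody complex recognizing phosphoserine and streptavidin-XL665 on the biotinylated peptide, after EDTA stop and 1 h at 22° C. The kinase reaction ran for 60 min at 22° C. Values are means or medians of repeat tests, from 4-parameter fits normalized to enzyme-free and inhibitor-free controls.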
Sequence of (recombinant) catalytic domain of human Bub1 (amino acids 704-1085) (O43683 704-1085): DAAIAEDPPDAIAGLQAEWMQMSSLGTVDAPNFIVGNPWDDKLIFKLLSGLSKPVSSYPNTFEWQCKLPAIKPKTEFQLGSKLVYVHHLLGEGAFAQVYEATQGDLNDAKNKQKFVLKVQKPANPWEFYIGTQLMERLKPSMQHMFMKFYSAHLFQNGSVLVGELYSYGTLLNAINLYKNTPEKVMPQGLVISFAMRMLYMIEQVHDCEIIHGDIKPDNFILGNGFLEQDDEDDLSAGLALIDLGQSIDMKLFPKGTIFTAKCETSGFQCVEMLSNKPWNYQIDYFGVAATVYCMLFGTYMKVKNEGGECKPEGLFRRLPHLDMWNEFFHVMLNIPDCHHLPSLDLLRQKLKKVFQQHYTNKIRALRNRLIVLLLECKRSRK
One may read the pIC50 as the negative decadic logarithm of the IC50, by convention in mol/L. Take `CC(C)c1ccc(Nc2c(-c3ccncc3)[nH]c3c2C(=O)CC(C)(C)C3)cc1` [Example 86, 6,6-dimethyl-3-{[4-(propan-2-yl)phenyl]amino}-2-(pyridin-4-yl)-1,5,6,7-tetrahydro-4H-indol-4-one]: the pIC50 is 5.26.
In the case of `CC1(C)CC(=O)c2c([nH]c(-c3ccncc3)c2Nc2cc(Cl)ccc2F)C1` [Example 87, 3-[(5-chloro-2-fluorophenyl)amino]-6,6-dimethyl-2-(pyridin-4-yl)-1,5,6,7-tetrahydro-4H-indol-4-one], the pIC50 is 5.75.
Under `CC(C)c1ccccc1Nc1c(-c2ccncc2)[nH]c2c1C(=O)CC(C)(C)C2` [Example 88, 6,6-dimethyl-3-{[2-(propan-2-yl)phenyl]amino}-2-(pyridin-4-yl)-1,5,6,7-tetrahydro-4H-indol-4-one] stands 5.58; under `CC1(C)CC(=O)c2c([nH]c(-c3ccncc3)c2Nc2cccc(O)c2)C1` [Example 89, 3-[(3-hydroxyphenyl)amino]-6,6-dimethyl-2-(pyridin-4-yl)-1,5,6,7-tetrahydro-4H-indol-4-one], 6.54.
As for `CC1(C)CC(=O)c2c([nH]c(-c3ccncc3)c2Nc2ccc([N+](=O)[O-])cc2)C1` [Example 90, 6,6-dimethyl-3-[(4-nitrophenyl)amino]-2-(pyridin-4-yl)-1,5,6,7-tetrahydro-4H-indol-4-one], the pIC50 is 6.29.
Under `Cc1c(Cl)cccc1Nc1c(-c2ccncc2)[nH]c2c1C(=O)CC(C)(C)C2` [Example 91, 3-[(3-chloro-2-methylphenyl)amino]-6,6-dimethyl-2-(pyridin-4-yl)-1,5,6,7-tetrahydro-4H-indol-4-one] stands 7.00; under `Cc1ccc(Nc2c(-c3ccncc3)[nH]c3c2C(=O)CC(C)(C)C3)cc1Cl` [Example 92, 3-[(3-chloro-4-methylphenyl)amino]-6,6-dimethyl-2-(pyridin-4-yl)-1,5,6,7-tetrahydro-4H-indol-4-one], 6.53.
Then `Cc1ccc(Cl)cc1Nc1c(-c2ccncc2)[nH]c2c1C(=O)CC(C)(C)C2` [Example 93, 3-[(5-chloro-2-methylphenyl)amino]-6,6-dimethyl-2-(pyridin-4-yl)-1,5,6,7-tetrahydro-4H-indol-4-one], with 5.13.
Under `CC1(C)CC(=O)c2c([nH]c(-c3ccncc3)c2Nc2cccc(Cl)c2F)C1` [Example 94, 3-[(3-chloro-2-fluorophenyl)amino]-6,6-dimethyl-2-(pyridin-4-yl)-1,5,6,7-tetrahydro-4H-indol-4-one] stands 6.94; under `CC1(C)CC(=O)c2c([nH]c(-c3ccncc3)c2Nc2ccc(F)c(Cl)c2)C1` [Example 95, 3-[(3-chloro-4-fluorophenyl)amino]-6,6-dimethyl-2-(pyridin-4-yl)-1,5,6,7-tetrahydro-4H-indol-4-one], 7.36; under `CC(C)C(=O)Nc1cccc(Nc2c(-c3ccncc3)[nH]c3c2C(=O)CC(C)(C)C3)c1` [Example 97, N-(3-{[6,6-dimethyl-4-oxo-2-(pyridin-4-yl)-4,5,6,7-tetrahydro-1H-indol-3-yl]amino}phenyl)-2-methylpropanamide], 5.53.
Regarding `CCC(=O)Nc1cccc(Nc2c(-c3ccncc3)[nH]c3c2C(=O)CC(C)(C)C3)c1` [Example 98, N-(3-{[6,6-dimethyl-4-oxo-2-(pyridin-4-yl)-4,5,6,7-tetrahydro-1H-indol-3-yl]amino}phenyl)propanamide], the pIC50 is 5.81.
As to `CNC(=O)c1cccc(Nc2c(-c3ccncc3)[nH]c3c2C(=O)CC(C)(C)C3)c1` [Example 99, 3-{[6,6-dimethyl-4-oxo-2-(pyridin-4-yl)-4,5,6,7-tetrahydro-1H-indol-3-yl]amino}-N-methylbenzamide], the pIC50 is 5.66.
With `CC1(C)CC(=O)c2c([nH]c(-c3ccncc3)c2Nc2ccc3[nH]ncc3c2)C1` [Example 100, 3-(1H-indazol-5-ylamino)-6,6-dimethyl-2-(pyridin-4-yl)-1,5,6,7-tetrahydro-4H-indol-4-one], the pIC50 was 7.02.
As for `CC1(C)CC(=O)c2c([nH]c(-c3ccncc3)c2Nc2cccc(C(N)=O)c2)C1` [Example 101, 3-{[6,6-dimethyl-4-oxo-2-(pyridin-4-yl)-4,5,6,7-tetrahydro-1H-indol-3-yl]amino}benzamide], the pIC50 is 6.29.
Then `CCCC(=O)Nc1cccc(Nc2c(-c3ccncc3)[nH]c3c2C(=O)CC(C)(C)C3)c1` [Example 102, N-(3-{[6,6-dimethyl-4-oxo-2-(pyridin-4-yl)-4,5,6,7-tetrahydro-1H-indol-3-yl]amino}phenyl)butanamide], with 6.02.
In the case of `CCOc1cccc(Nc2c(-c3ccncc3)[nH]c3c2C(=O)CC(C)(C)C3)c1` [Example 104, 3-[(3-ethoxyphenyl)amino]-6,6-dimethyl-2-(pyridin-4-yl)-1,5,6,7-tetrahydro-4H-indol-4-one], the pIC50 is 6.28.
In the case of `CC1(C)CC(=O)c2c([nH]c(-c3ccncc3)c2Nc2cccc(OCCO)c2)C1` [Example 106, 3-{[3-(2-hydroxyethoxy)phenyl]amino}-6,6-dimethyl-2-(pyridin-4-yl)-1,5,6,7-tetrahydro-4H-indol-4-one], the pIC50 was 5.27.
As to `CC1(C)CC(=O)c2c([nH]c(-c3ccncc3)c2Nc2cccc(OC(F)(F)F)c2)C1` [Example 107, 6,6-dimethyl-2-(pyridin-4-yl)-3-{[3-(trifluoromethoxy)phenyl]amino}-1,5,6,7-tetrahydro-4H-indol-4-one], the pIC50 is 6.79.
Then `CCCOc1cccc(Nc2c(-c3ccncc3)[nH]c3c2C(=O)CC(C)(C)C3)c1` [Example 108, 6,6-dimethyl-3-[(3-propoxyphenyl)amino]-2-(pyridin-4-yl)-1,5,6,7-tetrahydro-4H-indol-4-one], with 6.98.
On to `CC(=O)Nc1cccc(Nc2c(-c3ccncc3)[nH]c3c2C(=O)CC(C)(C)C3)c1` [Example 109, N-(3-{[6,6-dimethyl-4-oxo-2-(pyridin-4-yl)-4,5,6,7-tetrahydro-1H-indol-3-yl]amino}phenyl)acetamide], for which the pIC50 is 5.34.
Consider `COc1cc(Nc2c(-c3ccncc3)[nH]c3c2C(=O)CC(C)(C)C3)ccc1F` [Example 110, 3-[(4-fluoro-3-methoxyphenyl)amino]-6,6-dimethyl-2-(pyridin-4-yl)-1,5,6,7-tetrahydro-4H-indol-4-one], for which the negative-log IC50 (pIC50) is 6.63.
For the molecule `CC1(C)CC(=O)c2c([nH]c(-c3ccncc3)c2Nc2ccc(F)c(CO)c2)C1` [Example 111, 3-{[4-fluoro-3-(hydroxymethyl)phenyl]amino}-6,6-dimethyl-2-(pyridin-4-yl)-1,5,6,7-tetrahydro-4H-indol-4-one], the pIC50 is 5.58.
As to `CC(O)c1cccc(Nc2c(-c3ccncc3)[nH]c3c2C(=O)CC(C)(C)C3)c1` (stereo not shown) [Example 112, 3-{[3-(1-hydroxyethyl)phenyl]amino}-6,6-dimethyl-2-(pyridin-4-yl)-1,5,6,7-tetrahydro-4H-indol-4-one], the pIC50 is 5.46.
Then `CC(=O)c1cccc(Nc2c(-c3ccncc3)[nH]c3c2C(=O)CC(C)(C)C3)c1` [Example 113, 3-[(3-acetylphenyl)amino]-6,6-dimethyl-2-(pyridin-4-yl)-1,5,6,7-tetrahydro-4H-indol-4-one], with 6.76.
Under `CC1(C)CC(=O)c2c([nH]c(-c3ccncc3)c2Nc2cccc(C(C)(C)C)c2)C1` [Example 114, 3-[(3-tert-butylphenyl)amino]-6,6-dimethyl-2-(pyridin-4-yl)-1,5,6,7-tetrahydro-4H-indol-4-one] stands 5.06; under `CC1(C)CC(=O)c2c([nH]c(-c3ccncc3)c2Nc2cccc(OC(F)F)c2)C1` [Example 117, 3-{[3-(difluoromethoxy)phenyl]amino}-6,6-dimethyl-2-(pyridin-4-yl)-1,5,6.7-tetrahydro-4H-indol-4-one], 6.76.
Under `CC1(C)CC(=O)c2c([nH]c(-c3ccncc3)c2Nc2cccc(C(=O)OC(C)(C)C)c2)C1` [Example 118, tert-butyl 3-{[6,6-dimethyl-4-oxo-2-(pyridin-4-yl)-4,5,6,7-tetrahydro-1H-indol-3-yl]amino}benzoate] stands 6.34.
Consider `CC1(C)CC(=O)c2c([nH]c(-c3ccncc3)c2Nc2cccc(C3OCCO3)c2)C1` [Example 119, 3-{[3-(1,3-dioxolan-2-yl)phenyl]amino}-6,6-dimethyl-2-(pyridin-4-yl)-1,5,6,7-tetrahydro-4H-indol-4-one], for which the pIC50 was 5.63.
Under `COc1cc(F)ccc1Nc1c(-c2ccncc2)[nH]c2c1C(=O)CC(C)(C)C2` [Example 121, 3-[(4-fluoro-2-methoxyphenyl)amino]-6,6-dimethyl-2-(pyridin-4-yl)-1,5,6,7-tetrahydro-4H-indol-4-one] stands 6.49.
Under `CC1(C)CC(=O)c2c([nH]c(-c3ccnc(N)c3)c2Nc2ccccc2)C1` [Example 122, 2-(2-aminopyridin-4-yl)-6,6-dimethyl-3-(phenylamino)-1,5,6,7-tetrahydro-4H-indol-4-one] stands 7.24.
As for `COc1ccccc1Nc1c(-c2ccncc2)[nH]c2c1C(=O)CC(C)(C)C2` [Example 124, 3-[(2-methoxyphenyl)amino]-6,6-dimethyl-2-(pyridin-4-yl)-1,5,6,7-tetrahydro-4H-indol-4-one], the pIC50 is 6.81.
Consider `CCOc1cc(F)ccc1Nc1c(-c2ccncc2)[nH]c2c1C(=O)CC(C)(C)C2` [Example 125, 3-[(2-ethoxy-4-fluorophenyl)amino]-6,6-dimethyl-2-(pyridin-4-yl)-1,5,6,7-tetrahydro-4H-indol-4-one], for which the pIC50 was 6.34.
Then `CC1(C)CC(=O)c2c([nH]c(-c3ccnc(N4CCCC4)c3)c2Nc2ccccc2)C1` [Example 126, 6,6-dimethyl-3-(phenylamino)-2-[2-(pyrrolidin-1-yl)pyridin-4-yl]-1,5,6,7-tetrahydro-4H-indol-4-one], with 4.84.
